Experimental data taken from paper PMC6820371, “Terbium-161 for PSMA-targeted radionuclide therapy of prostate cancer” (European Journal of Nuclear Medicine and Molecular Imaging, 2019).

Columns and labels:
[1] = system: PC-3 PIP tumor cells; test: Cell viability assay (MTT assay); format: cell-based, human
Method: The detailed methods of these studies, including dosimetric calculations, are described in the Supplementary material. The results were analyzed for statistical significance by a two-way ANOVA with Sidak’s multiple comparison post-test using Graph Pad Prism (version 7).
Methods: Tumor cell viability was assessed using a 3-(4,5-dimethylthiazol-2-yl)-2,5-diphenyltetrazolium bromide (MTT) assay as described by Mosmann. PC-3 PIP tumor cells (2500 cells in 200 μL RPMI medium with supplements) were seeded in 96-well plates and incubated overnight (37°C; 5% CO2) to allow adhesion of the tumor cells. The supernatants were removed and the tumor cells were washed once with 200 μL PBS. Afterwards, the tumor cells were incubated in 200 μL RPMI medium (without supplements) containing ^161Tb-PSMA-617 or ^177Lu-PSMA-617 (0.01‒20 MBq/mL), respectively, or just RPMI medium without addition of radioligands. PSMA-negative PC-3 flu tumor cells were also treated with these radioligands under the same experimental conditions using the same concentration range. Additional cell viability assays were performed with PC-3 PIP tumor cells incubated with RPMI medium (without supplements) containing ^161Tb-diethylenetriaminepentaacetic acid (DPTA) or ^177Lu-DTPA (0.01 – 20 MBq/mL). After 4 h incubation (37 °C; 5% CO2), the tumor cells were washed once with 200 μL PBS, followed by the addition of 200 μL of RPMI medium (with supplements) to each well. The tumor cells were left to grow for 6 days under standard cell culture conditions (37 °C, 5% CO2). At Day 6 after treatment, MTT reagent (5 mg/mL in PBS, 30 μL per well) was added to each well to allow the formation of dark-violet formazan crystals within 4 h incubation. The crystals were dissolved by the addition of dimethyl sulfoxide to determine the absorbance at 560 nm using a microplate reader (Victor X3, Perkin Elmer). Cell viability was quantified by expressing the absorbance of the test samples as percentage of the absorbance of control (untreated) cell samples which was set to 100%. Statistical analysis was performed using a two-way ANOVA with Sidak’s multiple comparison post-test in Graph Pad Prism (version 7).

[2] = system: PC-3 PIP tumor cells; test: Cell survival assay (clonogenic assay); format: cell-based, human; conditions: 0.05–5.0 MBq/mL, p < 0.05

O=C([O-])CN1CCN(CC(=O)[O-])CCN(CC(=O)NCC2CCC(C(=O)NC(Cc3ccc4ccccc4c3)C(=O)NCCCCC(NC(=O)NC(CCC(=O)O)C(=O)O)C(=O)O)CC2)CCN(CC(=O)[O-])CC1.[161Tb+3] (stereo not drawn) [^161Tb-PSMA-617]
Reduction of tumor-cell viability compared to ^177Lu-PSMA-617 ([1]; 0.1–10 MBq/mL, p < 0.05): significantly more effective | Effectiveness in vitro relative to ^177Lu-PSMA-617 ([1]; viability and survival of PC-3 PIP tumor cells): up to 3 fold | Reduction of tumor-cell survival compared to ^177Lu-PSMA-617 [2]: significantly more effective
